The text below walks through data of ChEMBL document CHEMBL1134352, “Perspectives in animal health: old targets and new opportunities” (J Med Chem, 2001).

Data set [1] in a line: Acute toxicity in mice was determined. Type of data set: organism-based. To be noted: mouse, in vivo.
For data set [2], the species on record is Canis familiaris. Nature of the data set: Flea efficacy in dog. Type of data set: functional, Canis lupus familiaris.
Data set [3] in a line: Lethal dose in mouse was determined. Type of data set: toxicity, organism-based. To be noted: in vivo.
Data set [4] in a line: Lethal dose in dog was determined. Type of data set: toxicity, organism-based, Canis lupus familiaris. As to conditions: in vivo.
Data set [5] has as its target AF2 neuropeptide receptor. Nature of the data set: Compound was evaluated for inhibition of binding to Ascaris suum AF2 neuropeptide receptor.
In a further data set the test system is Mus musculus. Nature of the data set: Lethality in mouse, by administering the compound at 200 mg/kg; decreased toxicity. The arrangement: dose 200 mg/kg. Type of data set: functional, organism-based.
A further data set concerns Felis catus. Nature of the data set: Percent reduction of fleas on cats by topical application for 1 week. Type of data set: functional.
Data set [6] is described as follows: Oral bioavailability in dog. Type of data set: ADME, organism-based, Canis lupus familiaris. To be noted: in vivo.
Data set [7] deals with Canis familiaris. Nature of the data set: In vivo reduction of flea infestation was determined after an oral administration of 15 mg/kg in dog challenged with 100 fleas at day 8. Type of data set: functional, Canis lupus familiaris.
A short description of data set [8]: Lethal concentration of compound was determined against fleas. To be noted: pulicinae.
Data set [9] is filed under the species Canis familiaris. Nature of the data set: Minimum dose that cause toxicity in dog. Type of data set: functional, Canis lupus familiaris.
The test system of data set [10] is Canis familiaris. Nature of the data set: In vivo reduction of flea infestation was determined after an oral administration of 15 mg/kg in dog challenged with 100 fleas at day 4. Type of data set: functional, Canis lupus familiaris.
The subject of data set [11] is Canis familiaris. Nature of the data set: In vivo reduction of flea infestation was determined after an oral administration of 15 mg/kg in dog challenged with 100 fleas at day 6. Type of data set: functional, Canis lupus familiaris.
Data set [12] has as its system Canis familiaris. Nature of the data set: In vivo reduction of flea infestation was determined after an oral administration of 15 mg/kg in dog challenged with 100 fleas at day 0. Type of data set: functional, Canis lupus familiaris.
The species named for data set [13] is Canis familiaris. Nature of the data set: Flea efficacy in dog.
A further data set relates to Equus caballus. Nature of the data set: Compound was evaluated for gastric acid suppression on intravenous administration of a single dose up to 7 hr. Type of data set: functional, Stomach.

In brackets after ≈: the same amount, converted by molar mass.

As to `CO[C@H]1C[C@H](O[C@H]2[C@H](C)O[C@@H](OC3/C(C)=C/CC4C[C@@H](C[C@]5(C=C[C@H](C)[C@@H](C(C)C)O5)O4)OC(=O)[C@@H]4C=C(C)[C@@H](O)[C@H]5OC/C(=C\C=C\[C@@H]3C)[C@]54O)C[C@@H]2OC)O[C@@H](C)[C@@H]1O` (some centres not stated), the median lethal dose (LD50) in [1] is 160 mg/kg.
Turning to `C=C(C)[C@H]1C(=O)c2c3c(cc4c5c(n1c24)[C@@]1(C)C(CC[C@H]2[C@](C)(/C=C/C=C(\C)C(=O)N(C)CC)[C@@H](O)CC[C@@]21C)C5)C1=CC(C)(C)OC(C)(C)C1[C@@H]3O` (some centres not stated), the Efficacy in the data set filed under Canis familiaris [2] came out at 0.1 µg/mL.
Regarding `CN1C(=O)[C@]23CC4CC(C)(C)[C@@]5(C[C@@]41CN2CC[C@@]3(C)O)C(=O)Nc1c5ccc2c1OC=CC(C)(C)O2` (some centres not stated), the median lethal dose (LD50) in [3] is below 15 mg/kg; in [4], 0.5 mg/kg.
In [5], `N=c1sc(-c2ccccn2)nn1-c1c(Cl)cc(Cl)cc1Cl` showed an IC50 of 3 µM.
For `N#Cc1ccnc(-c2nn(-c3c(Cl)cc(C(F)(F)F)cc3Cl)c(=N)s2)c1`, in data set [5], the IC50 came out at 0.01 µM.
On to `CC[C@@]12C(=O)N(C)[C@@]3(CCC(C)(C)[C@]4(CNc5c4ccc4c5OC=CC(C)(C)O4)C3)CN1CC[C@@]2(C)O`, for which the Lethality result in the data set on Mus musculus is given as “decreased toxicity”.
In the data set on Felis catus, `C/C=C(\C)C(=O)O[C@H]1C[C@@H](OC(C)=O)[C@@]2(C(=O)OC)CO[C@H]3[C@@H](O)[C@@](C)([C@]45O[C@@]4(C)[C@@H]4C[C@H]5O[C@@H]5OC=C[C@@]54O)[C@H]4[C@]1(CO[C@]4(O)C(=O)OC)[C@@H]32` [AZADIRACHTIN A] gave a Reduction of 53%.
For `CC(C(=O)O)c1ccc2c(c1)[nH]c1ccc(Cl)cc12` (configuration not stated) [CARPROFEN], the bioavailability in [6] was around 90%.
As to `C=C(C)[C@H]1C(=O)c2c3c(cc4c5c(n1c24)[C@@]1(C)C(CC[C@H]2[C@](C)(/C=C/C=C(\C)C(=O)O)[C@@H](O)CC[C@@]21C)C5)C1=CC(C)(C)OC(C)(C)C1[C@@H]3O` (some centres not stated) [NOD ACID A], the Efficacy in the data set with Canis familiaris [7] turned out to be 0%; with Canis familiaris [10], 97%; with Canis familiaris [11], 51%; in the data set on Canis familiaris [12], 99%. The same compound registered an LC50 in data set [8] of 0.68 mg/L (≈ 1 µM). This compound had a Dose in the data set listed under Canis familiaris [9] of 0.006 mg/kg.
For the compound `C=C(C)[C@H]1C(=O)c2c3c(cc4c5c(n1c24)[C@@]1(C)C(CC[C@H]2[C@](C)(/C=C/C=C(\C)C(=O)N4CCN(S(C)(=O)=O)CC4)[C@@H](O)CC[C@@]21C)C5)C1=CC(C)(C)OC(C)(C)C1[C@@H]3O` (some centres not stated) [NODULISPORAMIDE], the Efficacy in the data set filed under Canis familiaris [13] amounted to 0.01 µg/mL.
With `COc1ccc2[nH]c([S+]([O-])Cc3ncc(C)c(OC)c3C)nc2c1` (configuration not stated) [OMEPRAZOLE], the Inhibition in the data set with Equus caballus is recorded as above 90%.

For orientation: LD50 means the dose expected to kill half of the subjects tested. A higher LD50 goes with lower toxicity. In general, IC50 refers to the concentration that inhibits the measured activity by half. Lower therefore signals inhibition by little substance. For orientation: bioavailability means dose-corrected exposure relative to a reference, in per cent. Usually LC50 stands for the concentration that kills 50% of the test population. Read a low LC50 as a more lethal substance. As a reminder, the Inhibition is the share of the control response that was lost under treatment. Low values mean a weak effect, high ones a strong effect.
